The results in this text go back to patent US8735388B2, “Heterocyclic compounds with affinity to muscarinic receptors” (Abbvie B. V. A., priority 2007, dated 2014).

For assay [1], the target named is T1, Muscarine M1 (GPCR-A-MA-ACH M1) (Homo sapiens, UniProt P11229).
T1 construct: expressed in transfected cells; host or cells: CHO cells
T1 sequence (P11229 1-460): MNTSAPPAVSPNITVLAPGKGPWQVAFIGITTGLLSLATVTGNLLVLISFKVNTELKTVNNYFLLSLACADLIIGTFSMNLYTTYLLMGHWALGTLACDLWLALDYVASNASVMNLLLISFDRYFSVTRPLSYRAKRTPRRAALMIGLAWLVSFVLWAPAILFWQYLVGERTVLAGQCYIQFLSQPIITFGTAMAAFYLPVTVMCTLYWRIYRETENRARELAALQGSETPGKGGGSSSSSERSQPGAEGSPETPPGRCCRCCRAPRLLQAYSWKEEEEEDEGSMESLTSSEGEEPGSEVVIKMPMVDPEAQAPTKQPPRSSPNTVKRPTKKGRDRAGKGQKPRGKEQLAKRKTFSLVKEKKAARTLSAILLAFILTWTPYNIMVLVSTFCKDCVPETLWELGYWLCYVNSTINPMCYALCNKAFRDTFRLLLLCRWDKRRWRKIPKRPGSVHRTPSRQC
The assay is described as follows: Muscarine M1 cell-based functional assay (CHO cells, Ca2+ - FLIPR Fluorimetry). The conditions noted are these: human M1, CHO cells; agonist mode, reference agonist acetylcholine; read-out: Cell funct. Musc. M1 Agonism pEC50 (converted).

In assay [2] the target is T2, Muscarine M4 (GPCR-A-MA-ACH M4) (Homo sapiens, UniProt P08173).
T2 construct: expressed in transfected cells; host or cells: CHO cells
T2 sequence (P08173 1-479): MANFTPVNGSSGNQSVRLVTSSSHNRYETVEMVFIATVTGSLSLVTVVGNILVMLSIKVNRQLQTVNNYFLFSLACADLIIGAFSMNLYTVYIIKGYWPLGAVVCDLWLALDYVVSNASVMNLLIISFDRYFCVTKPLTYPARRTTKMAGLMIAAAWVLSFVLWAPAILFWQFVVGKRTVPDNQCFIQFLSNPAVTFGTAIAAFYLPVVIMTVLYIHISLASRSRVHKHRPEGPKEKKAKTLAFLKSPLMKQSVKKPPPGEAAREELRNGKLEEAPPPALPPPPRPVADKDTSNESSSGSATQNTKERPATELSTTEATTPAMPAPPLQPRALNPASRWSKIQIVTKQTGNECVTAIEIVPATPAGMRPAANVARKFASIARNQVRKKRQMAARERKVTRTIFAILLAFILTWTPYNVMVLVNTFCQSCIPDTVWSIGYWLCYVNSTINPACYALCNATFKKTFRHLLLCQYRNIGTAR
The assay is described as follows: Muscarine M4 cell-based functional assay (CHO cells, Ca2+ - Aequorin luminescence). As for the experimental part:
Compounds were dissolved in DMSO (10 mM) and diluted in assay buffer to test concentration. Prime testing was at 1 μM; for actives in antagonist mode (PI, percent inhibition with respect to reference agonist and blank>30%) as well as actives in agonist mode (PS, percent stimulation with respect to reference agonist and blank>30%) testing was continued at lower concentrations in 10-fold dilutions: 0.1 μM, 0.01 μM, etc.
Cells were incubated with compound and the response indicated was measured.
The results are expressed as a percent of reference agonist values and blanks in the presence of the test compound, percent stimulation for agonist mode; for the antagonist mode (test compound in the presence of reference agonist) as percent inhibition. The EC50 values (concentration causing a half-maximal stimulation of control values), IC50 values (concentration causing a half-maximal inhibition of control values) were determined by non-linear regression analysis of the concentration-response curves using Hill equation curve fitting.

For assay [3], the target named is T2, Muscarine M4 (GPCR-A-MA-ACH M4). The assay is described as follows: Muscarine M4 receptor binding, 3H-4DAMP. The following applies: human M4, CHO cells, ligand 0.2 nM, 60 min/22° C.; for Ki: read-out: RB Musc. M4 3H-DAMP pKi (converted). As for the experimental part: (§1) Compounds were dissolved in DMSO (10 mM) and diluted in assay buffer to test concentration. Prime testing was at 10 μM; for actives (PI, percent inhibition with respect to total and non-specific binding >40%) testing was continued at lower concentrations in 10-fold dilutions: 1 μM, 0.1 μM, etc.
(§2) Following incubation of compound with the receptor preparation (from ‘Tissue’) and the Ligand at the time and temperature indicated, the receptor preparations were rapidly filtered under vacuum through glass fibre filters; the filters were washed extensively with an ice-cold buffer using a harvester. Bound radioactivity was measured by scintillation counting using a liquid scintillation cocktail.
(§3) Results were expressed as percentage of total Ligand binding and that of Non Specific Binding, per concentration of Compound tested (duplicates); from the concentration—displacement curves IC50 values were determined by non-linear regression analysis using Hill equation curve fitting. The inhibition constants (Ki) were calculated from the Cheng-Prushoff equation Ki=IC50/(1+L/Kd), where L is the concentration of radioligand in the assay, and Kd the affinity of the radioligand for the receptor. Results were expressed as pKi's, means±SD of at least 2 separate experiments; i.e. outliers (outside+/−1 std of mean) and discrepancies were excluded.

For assay [4], the target named is T1, Muscarine M1 (GPCR-A-MA-ACH M1). Nature of the assay: Muscarine M1 receptor binding, 3H-Pirenzepine. The conditions noted are these: human M1, CHO cells, ligand 2 nM, 60 min/22° C.; for Ki: read-out: RB Musc. M1 3H-Pirenzepine pKi (converted). As for the experimental part: as §1, §2, §3
Assay [5] addresses T2, Muscarine M4 (GPCR-A-MA-ACH M4). The assay is described as follows: Muscarine M4 receptor binding, 3H-Oxotremorine. As for the experimental part:
as §1, §2, §3

[6] abbreviates: human M4, CHO cells, agonist mode, reference agonist oxotremorine, read-out: Cell funct. Musc. M4 Agonism pEC50 (converted).
Where [7] appears, read: human M4, CHO cells, receptor binding, ligand 6 nM, 30 min/25° C., read-out: RB Musc. M4 3H-Oxotremorine pKi (converted).

Where two headings read alike, the source gives them in different places.

For the molecule `CCCCSc1c[nH]nc1[C@@H]1CN2CCC[C@H]1C2` (relative stereo) [Compound 60B, Endo-6-(4-butylsulfanyl-1H-pyrazol-3-yl)-1-azabicyclo[3.2.1]octane], the EC50 in assay [1] is greater than 1 µM; in assay [2] (setting [6]), greater than 10 µM. Besides, the Ki in assay [3] was 0.158 µM; in assay [4], 0.398 µM; in assay [5], 0.251 µM.
For `CCCCCc1c[nH]nc1C1=CCCN(C)C1` [Compound 9, 3-(4-Pentyl-1H-pyrazol-3-yl)-1,2,5,6-tetrahydro-1-methylpyridine], the EC50 in assay [1] was 0.126 µM; in assay [2] (setting [6]), greater than 10 µM. For the same molecule, the Ki in assay [3] is 0.316 µM; in assay [4] it was 1.26 µM; in assay [5] (setting [7]) it was 0.398 µM.
On to `CCCCc1c[nH]nc1C1=CCCN(C)C1` [Compound 16, 3-(4-Butyl-1H-pyrazol-3-yl)-1,2,5,6-tetrahydro-1-methylpyridine], for which, in assay [2] (setting [6]), the EC50 is greater than 10 µM.
Consider `CCCCCCSc1c[nH]nc1C1=CCCN(C)C1` [Compound 22H, 3-(4-Hexylsulfanyl-1H-pyrazol-3-yl)-1,2,5,6-tetrahydro-1-methylpyridine], for which the EC50 in assay [1] is 0.126 µM; in assay [2] (setting [6]) it was 0.01 µM. Moreover, the values for the Ki in assay [3], in assay [4] and in assay [5] (setting [7]) were 0.0631 µM, 0.2 µM and 0.126 µM, respectively.
As to `CN1CCC=C(c2n[nH]cc2SCCCc2ccccc2)C1` [Compound 22I, 3-[4-(3-Phenyl-propylsulfanyl)-1H-pyrazol-3-yl]-1,2,5,6-tetrahydro-1-methylpyridine], the EC50 in assay [1] is 0.1 µM; in assay [2] (setting [6]) it was 0.251 µM. Also, the Ki is 0.251 µM in assay [3], 0.794 µM in assay [4] and 0.1 µM in assay [5] (setting [7]).
For the molecule `CN1CCC=C(c2n[nH]cc2SCC=Cc2ccccc2)C1` [Compound 22K, 3-[4-(3-Phenyl-allylsulfanyl)-1H-pyrazol-3-yl]-1,2,5,6-tetrahydro-1-methylpyridine], the EC50 was 0.1 µM in assay [1] and 1.26 µM in assay [2] (setting [6]). In addition, the figures for the Ki in assay [3], in assay [4] and in assay [5] (setting [7]) were 0.631 µM, 1.26 µM and 0.398 µM, respectively.
Regarding `CN1CCC=C(c2n[nH]cc2SCc2ccco2)C1` [Compound 22M, 3-[4-(Furan-2-yl-methylsulfanyl)-1H-pyrazol-3-yl]-1,2,5,6-tetrahydro-1-methylpyridine], the EC50 in assay [2] (setting [6]) was greater than 10 µM. Also, the Ki in assay [3] was 0.398 µM; in assay [4], 0.501 µM; in assay [5] (setting [7]), 0.251 µM.
On to `CN1CCC=C(c2n[nH]cc2SCc2ccccc2)C1` [Compound 22N, 3-(4-Benzylsulfanyl-1H-pyrazol-3-yl)-1,2,5,6-tetrahydro-1-methylpyridine], for which the EC50 in assay [2] (setting [6]) is greater than 10 µM. Further, the Ki in assay [3] was 0.251 µM; in assay [4] it was 0.398 µM; in assay [5] (setting [7]), 0.251 µM.
In the case of `COCCOCCSc1c[nH]nc1C1=CCCN(C)C1` [Compound 22P, 3-{4-[2-(2-Methoxy-ethoxy)-ethylsulfanyl]-1H-pyrazol-3-yl}-1,2,5,6-tetrahydro-1-methylpyridine], the results for the EC50 in assay [1] and in assay [2] (setting [6]) were 0.398 µM and 1.26 µM, respectively. The Ki in assay [3] was 6.31 µM; in assay [4] it was greater than 10 µM; in assay [5] (setting [7]) it was 6.31 µM.
For the molecule `C=CCSc1c[nH]nc1C1=CCCN(C)C1` [Compound 22Q, 3-(4-Allylsulfanyl-1H-pyrazol-3-yl)-1,2,5,6-tetrahydro-1-methylpyridine], in assay [2] (setting [6]), the EC50 is greater than 10 µM. The Ki in assay [3] was 0.501 µM; in assay [4], 0.794 µM; in assay [5] (setting [7]) it was 0.126 µM.
On to `CN1CCC=C(c2n[nH]cc2SCCC#N)C1` [Compound 22R, 3-[3-(1-Methyl-1,2,5,6-tetrahydro-pyridin-3-yl)-1H-pyrazol-4-ylsulfanyl]-propionitrile], for which, in assay [2] (setting [6]), the EC50 was greater than 10 µM. The Ki in assay [3] was 3.98 µM; in assay [4] it was 12.6 µM; in assay [5] (setting [7]) it was 2 µM.
On to `CCCCSc1cc(C2=CCCN(C)C2)n[nH]1` [Compound 26, 3-(5-Butylsulfanyl-1H-pyrazol-3-yl)-1,2,5,6-tetrahydro-1-methylpyridine], for which the EC50 in assay [2] (setting [6]) is greater than 10 µM. Further, the Ki was 0.2 µM in assay [3], 0.158 µM in assay [4] and 0.251 µM in assay [5] (setting [7]).
`CCCC(=O)Nc1c[nH]nc1C1=CCCN(C)C1` [Compound 41]: in assay [2] (setting [6]), the EC50 was greater than 10 µM. For the same molecule, the Ki in assay [3], in assay [4] and in assay [5] (setting [7]) was greater than 10 µM in each case.
Turning to `CCCCNc1c[nH]nc1C1=CCCN(C)C1` [Compound 42, Butyl-[3-(1-Methyl-1,2,5,6-tetrahydro-pyridin-3-yl)-1H-pyrazol-4-yl]-amine], the EC50 in assay [2] (setting [6]) was greater than 10 µM. The Ki in assay [3] is 5.01 µM; in assay [4] it was 7.94 µM; in assay [5] (setting [7]) it was 3.98 µM.
For `CN1CCC=C(c2n[nH]cc2C=Cc2cccc(F)c2)C1` [Compound 47B, 3-{-4-2[-(3-Fluor-Phenyl)-vinyl]-1H-pyrazol-3-yl}-1,2,5,6-tetrahydro-1-methylpyridine], in assay [2] (human M4, CHO cells, agonist mode, reference agonist oxotremorine), the “Cell funct. Musc. M4 Agonism pEC50” value is listed as less than 5.0. Moreover, the “RB Musc. M4 3H-DAMP pKi” value in assay [3] was found to be 6.5. Besides, the “RB Musc. M1 3H-Pirenzepine pKi” value in assay [4] came to 6.1. In assay [5] (human M4, CHO cells, receptor binding, ligand 6 nM, 30 min/25° C.), the “RB Musc. M4 3H-Oxotremorine pKi” value was 6.8.
`CCCCCSc1c[nH]nc1[C@@H]1CN2CCC[C@H]1C2` [Compound 60A, Endo-6-(4-pentylsulfanyl-1H-Pyrazol-3-yl)-1-azabicyclo[3.2.1]octane]: the EC50 in assay [2] (setting [6]) is greater than 10 µM. For the same molecule, the figures for the Ki in assay [3], in assay [4] and in assay [5] (setting [7]) were 0.251 µM, 0.398 µM and 0.0631 µM, respectively.
In the case of `CCCCSc1conc1C1=CCCN(C)C1` [Compound 66A, 3-(4-Butylsulfanyl-isoxazol-3-yl)-1,2,5,6-tetrahydro-1-methylpyridine], the EC50 in assay [2] (setting [6]) is greater than 10 µM. The Ki was 0.0398 µM in assay [3], 0.251 µM in assay [4] and 0.0794 µM in assay [5] (setting [7]).
Regarding `CCCCCCSc1conc1C1=CCCN(C)C1` [Compound 66B, 3-(4-Hexylsulfanyl-isoxazol-3-yl)-1,2,5,6-tetrahydro-1-methylpyridine], the EC50 in assay [2] (setting [6]) was 0.501 µM. For the same molecule, the Ki is 0.1 µM in assay [3], 0.631 µM in assay [4] and 0.158 µM in assay [5] (setting [7]).
`O=C1CCCN1CC#CCN1CCCC1` [oxotremorine, reference compound] registered an EC50 in assay [2] of 0.04 µM.
